Data: paper PMC9767416, “Discovery of small molecule mechanistic target of rapamycin inhibitors as anti-aging and anti-cancer therapeutics” (Frontiers in Aging Neuroscience, 2022)
Like-named read-outs stand apart in the source and are kept apart here.

Legend:
[1] = Solubility by nephelometry (water, buffer pH 7.4); format: physicochemical
Experimental: Compounds’ solubility was measured by the NEPHELOstar microplate instrument (BMG Labtech, Offenburg, Germany). Stock solutions were prepared by dissolving the tested compounds in ultrapure water or sodium phosphate buffer (pH 7.4) to obtain a concentration of 160 and 1,000 μg/mL. Each stock solution was sonicated at full power by Hielscher UP100H needle ultrasonic processor (Teltow, Germany) before loading into NEPHELOstar instrument injector A. Ultrapure water or sodium phosphate buffer was loaded into injector B. Compound was diluted in 48 wells in 0–160 or 0–1,000 μg/mL range and subsequently shook for 30 s. Each well was scanned with 80% laser power in matrix 3 × 3, beam width 2 mm, and obtained data were evaluated in GraphPad Prism 7.03 (GraphPad Software, San Diego, CA, USA) using segmental linear regression.

[2] = system: mTORC1 substrate p70 S6 kinase (Thr389 phosphorylation); test: Immunoblot of phospho-p70 S6K (Thr389), mTORC1 activity in cells; format: cell-based, human; settings: for effect on Thr389 S6K phosphorylation / effect on p70 S6K phosphorylation: 100 μM
[3] = system: pro-inflammatory cytokines of SASP; test: Secretion of pro-inflammatory cytokines (SASP) by senescent cells; format: cell-based, human; settings: 50 μM, 24 h
Experimental: To determine the secretion of selected inflammatory cytokines into culture media, cell cultures were exposed to tested compounds (50 μM) for 24 h. Then the culture medium was removed, cells were washed three times with 1 mL PBS, and a fresh medium without FBS was added for 24 h. Detection of cytokines in conditioned culture media was done by Human Inflammation 11-Plex Panel: IFNγ, IL-1α, IL-1β, IL-6, IL-8, IL-10, IL-12p70, IL-27, IP-10, MCP-1, and TNFα (AimPlex Biosciences, Inc.) using a BD FACSVerseTM flow cytometer (BD Biosciences, Franklin Lakes, NJ, USA) according to manufacturer’s protocol. Data were analyzed using FlowJo 10 software (FlowJo LLC, Ashland, OR, USA).
Importantly, compound 3 decreased IL-1α, IL-8, and MCP-1 consistently in all tested senescence models. The effect of compound 3 on IL-6 was variable.

C57BL/6 (B6) male mice [4] = test: Blood counts in the tolerability study; format: in vivo; settings: for MPV: mice, blood day 8, AVG; for Eos / HGB / HOT / MCH / MCHC / MCV / Mon / Neu / PCT / PDW / PLT / RBC / RDW-CV / RDW-SD / WBC / lvm: mouse, in vivo, po
Experimental: Compounds were dissolved in 20 μL DMSO and completed into 200 μL with corn oil.
(§1) During the experiments, mice behavior and possible apparent signs of toxicity were monitored daily. The body weights were determined on days 0, 4, and 8. On day 8, blood (25 μL) was withdrawn using a capillary pipette containing anticoagulant (heparin) from the retroorbital sinus into EDTA-containing tubes. Basic hematological parameters were measured using the Mindray BC-5300 Vet. Mice were then killed, autopsied, and abdominal organs (spleen, liver, and kidney) were removed for visual examination and imaging by a digital camera. Single-cell suspensions from the spleens were prepared by homogenization through a cell strainer (70 μm; BD Biosciences, San Jose, CA, USA). Erythrocytes were osmotically lysed using ammonium chloride-potassium lysis buffer, and the cell suspensions were washed three times in the RPMI-1640 medium and used for further analysis by flow cytometry for selected cell populations.

C57BL/6 (B6) male mice [5] = test: Spleen cell populations by flow cytometry in the tolerability study; format: in vivo; settings: for CD4+ spleen cells / CD8+ spleen cells / Cd11b+/Gr-1+ spleen cells: percentage from the CD45+ cells
Experimental: as §1
The cellularity of selected spleen cell populations was analyzed by flow cytometry. Cell suspensions were washed and preincubated with anti-CD16/CD32 (2.4G2) antibody to minimize non-specific binding at 4°C for 15 min following the washing step and incubation with labeled primary antibody at 4°C for 30 min. Relevant isotype controls of irrelevant specificity were used. FACS buffer (PBS, 1% FBS, 0.1% NaN3) was used for all washing steps and analysis. The following antibodies were used for FACS analyses: BV421 anti-mouse CD45 (30-F11), PE anti-mouse CD8α (53-6.7), BV711 anti-mouse CD4 (RM4-5), APC anti-mouse Ly-6g/Ly-6C (Gr-1) (RB6-8C5), BV711 anti-mouse CD11b (M1/70). FACS analysis was performed using a flow cytometer Symphony (BD Biosciences) and analyzed using FlowJo 10 software (FlowJo LLC, Ashland, OR, USA).

[6] = all tested senescence models (DIS-BJ, IR-RPE-1, TMZ-U87)

## Nc1ccc(C(=O)Nc2cccc(-c3c[nH]c4ncccc34)c2)cc1O [Compound 3, N-(3-(1H-pyrrolo[2,3-b]pyridin-3-yl)phenyl)-4-amino-3-hydroxybenzamide]
[1]; aqueous buffer, sodium phosphate buffer pH 7.4, nephelometry, read-out: Sol. (buffer 7.4)
  solubility kinetic at 30 s: < 6 µg/mL
[1]; buffer pH 7.4
  logSpH 7.4: <−4.76
[1]; sodium phosphate buffer pH 7.4, nephelometry
  Sol. (buffer 7.4): lower than 6 μg/mL
[1]; ultrapure water, nephelometry
  Sol. (H2O): lower than 6 μg/mL
[1]; ultrapure water, nephelometry, read-out: Sol. (H2O)
  solubility kinetic at 30 s: < 6 µg/mL
[1]; water
  logSH2O: <−4.76
[2]; BJ cells, 1 and 5 h
  effect on Thr389 S6K phosphorylation: inhibitory effect
[2]; DU-145, 1 and 5 h
  effect on Thr389 S6K phosphorylation: no effect
[2]; H1299, 1 and 5 h
  effect on Thr389 S6K phosphorylation: Marked but transient inhibition
[2]; MDA-MB-231, 1 and 5 h
  effect on Thr389 S6K phosphorylation: Marked but transient inhibition
[2]; RPE-1, 1 and 5 h
  effect on Thr389 S6K phosphorylation: no effect
[2]; T98, 1 and 5 h
  effect on Thr389 S6K phosphorylation: Marked but transient inhibition
[2]; U87, after 1 h, reasonable level also after 5 h
  effect on Thr389 S6K phosphorylation: most potent inhibitory effect
[2]; docetaxel-induced senescent BJ, 1 and 5 h
  effect on p70 S6K phosphorylation: robust effect
[2]; ionizing radiation-induced senescent RPE-1, 1 and 5 h
  effect on p70 S6K phosphorylation: less pronounced effect
[2]; proliferating BJ cells, 0–100 μM, after 5 h-long exposure
  concentration from which inhibition of S6K phosphorylation is apparent: 6.25 µM
[2]; temozolomide-induced senescent U87, 1 and 5 h
  effect on p70 S6K phosphorylation: less pronounced effect
[3]; DIS-BJ senescent cells
  IL-6 level in conditioned medium: apparent decrease
[3]; TMZ-U87 senescent cells
  IL-6 level in conditioned medium: apparent decrease
[3]; TMZ-induced U87 senescent cells
  all detectable cytokines (IL-1α, IL-1β, IL-6, IL-8, IL-27, MCP-1, TNFα): suppressed
[3]; [6]
  IL-1α level in conditioned medium: decreased
  IL-8 level in conditioned medium: decreased
  MCP-1 level in conditioned medium: decreased
C57BL/6 (B6) male mice [4]; 5 mg/kg p.o. days 0, 3, 5
  MPV: 5.67
C57BL/6 (B6) male mice [4]; 25 mg/kg p.o. days 0, 3, 5
  MPV: 5.37
C57BL/6 (B6) male mice [4]; 50 mg/kg p.o. days 0, 3, 5
  MPV: 5.20
C57BL/6 (B6) male mice [4]; 5 mg/kg
  Eos: 0.88
  HGB: 131.00
  HOT: 0.44
  MCH: 15.90
  MCHC: 296.33
  MCV: 53.70
  Mon: 0.39 10^9/L
  Neu: 1.65
  PCT: 3.88
  PDW: 15.20
  PLT: 677.33
  RBC: 8.28 10^12/L
  RDW-CV: 0.14
  RDW-SD: 31.27
  WBC: 12.56
  lvm: 9.60
C57BL/6 (B6) male mice [4]; 25 mg/kg
  Eos: 0.74
  HGB: 136.00
  HOT: 0.46
  MCH: 15.53
  MCHC: 294.00
  MCV: 52.77
  Mon: 0.52 10^9/L
  Neu: 1.47
  PCT: 1.77
  PDW: 14.93
  PLT: 330.00
  RBC: 8.76 10^12/L
  RDW-CV: 0.15
  RDW-SD: 32.23
  WBC: 11.49
  lvm: 8.71
C57BL/6 (B6) male mice [4]; 50 mg/kg
  Eos: 0.43
  HGB: 150.67
  HOT: 0.52
  MCH: 15.10
  MCHC: 289.33
  MCV: 52.07
  Mon: 0.72 10^9/L
  Neu: 0.86
  PCT: 3.92
  PDW: 14.70
  PLT: 751.67
  RBC: 9.99 10^12/L
  RDW-CV: 0.13
  RDW-SD: 29.03
  WBC: 8.25
  lvm: 6.23
C57BL/6 (B6) male mice [5]; 5 mg/kg p.o. days 0, 3, 5, spleen day 8
  CD45+ spleen cells: 94.3%
C57BL/6 (B6) male mice [5]; 5 mg/kg p.o.
  CD4+ spleen cells: 19.0%
  CD8+ spleen cells: 11.4%
  Cd11b+/Gr-1+ spleen cells: 0.7%
C57BL/6 (B6) male mice [5]; 25 mg/kg p.o. days 0, 3, 5, spleen day 8
  CD45+ spleen cells: 95.9%
C57BL/6 (B6) male mice [5]; 25 mg/kg p.o.
  CD4+ spleen cells: 15.9%
  CD8+ spleen cells: 9.6%
  Cd11b+/Gr-1+ spleen cells: 1.0%
C57BL/6 (B6) male mice [5]; 50 mg/kg p.o. days 0, 3, 5, spleen day 8
  CD45+ spleen cells: 97.2%
C57BL/6 (B6) male mice [5]; 50 mg/kg p.o.
  CD4+ spleen cells: 16.0%
  CD8+ spleen cells: 9.8%
  Cd11b+/Gr-1+ spleen cells: 0.8%
